Laboratory results: publication PMC6925188, “PBRM1 acts as a p53 lysine-acetylation reader to suppress renal tumor growth” (Nature Communications, 2019)

Legend:
[1] = tested on: PBRM1 binding to CDKN1A; experiment: ChIP-qPCR, Flag antibody (Flag-PBRM1), CDKN1A gene, RCC4 cells; type: cell-based; parameters: unit not given here; conditions: 100 μM, 24 h
Method: (§1) Lysates were analyzed by immunoblots. c RCC4 cells with or without p53 KO were transfected with vector or Flag-PBRM1 at the indicated amounts. […] Cells were harvested for RT-qPCR (g) or ChIP followed by qPCR (h). […] Representative data is shown in i. Quantification of cell cycle phase is shown in j. Source data are provided as a Source Data file.
ChIP assays were performed with the Pierce Agarose ChIP Kit (26156, Thermo Scientific) according to the manufacturer’s instructions with minor revisions. In brief, samples were crosslinked with 1% paraformaldehyde and halted by 125 mM glycine. After washing twice with ice-cold PBS, cells were harvested and suspended in Lysis Buffer 1 and incubated on ice for 10 min. 1 × 10^7 nuclei were resuspended in 500 μl MNase Digestion Buffer containing 6.25 U Micrococcal Nuclease and incubated at 37 °C for 15 min. After the reaction was stopped, nuclei were pelleted by centrifugation and resuspended in 250 μl Lysis Buffer 2. Nuclei were sonicated at 10% amplitude for 10 s twice and incubated on ice for 30 min. After centrifugation, 50 μl supernatant containing the digested chromatin from 2 × 10^6 nuclei was diluted in 1× IP Dilution Buffer and incubated with antibodies (normal rabbit IgG for control, 1 μg FL393 + 1 μg DO-1 for p53 or 2 μg Flag M2 for Flag-PBRM1) overnight at 4 °C. […] of ChIP Grade Protein A/G Plus Agarose was added and incubated for 1 h at 4 °C. The agarose resins were washed once with IP Wash Buffer 1, twice with IP Wash Buffer 2 and once with IP Wash Buffer 3. 150 μl 1× IP Elution Buffer was added to the washed resin and incubated at 65 °C for 30 min with shaking. The eluate was treated with Proteinase K and DNA was extracted with columns provided in the kit.

[2] = tested on: endogenous PBRM1 and p53; experiment: Endogenous p53 immunoprecipitation, HEK293 cells; type: cell-based, human; conditions: 50 μM, 8 h
From the text: Fig. 1 PBRM1 and p53 display a physical association that is enhanced after DNA damage. a U2OS cells (left) and HEK293T cells (right) were transfected with vector or Flag-PBRM1 and harvested for immunoprecipitation with Flag-M2 beads and elution with 3X Flag peptide. […] Lysates were subjected to immunoprecipitation with Flag-M2 beads. […] Lysates were immunoprecipitated with p53 antibody. The bound PBRM1 and p53 were examined by immunoblots. Source data are provided as a Source Data file.

[3] = tested on: RCC4 cells; conditions: 100 μM etoposide
Method: as §1
After washing with ice-cold PBS, cells were scraped on ice and centrifuged at 10,000 × g for 1 min at 4 °C. For immunoblot analysis, cell pellets were lysed in 1% SDS containing a protease inhibitor cocktail followed by sonication with a FB50 sonic dismembrator (Fisher Scientific) at 20% amplitude for 15 s twice. After centrifuging for 10 min at 14,000 × g, the supernatants were combined with 5X SDS loading buffer (5% mercaptoethanol, 0.05% Bromophenol blue, 30% glycerol, 10% SDS, 250 mM Tris-HCl (pH 6.8)), boiled for 5 min and used in SDS-PAGE. After standard western blot procedures, the blots were developed using the ImageQuant LAS 4000 (GE healthcare Life Sciences) or ChemiDoc MP Imaging System (Bio-rad) with HyGLO™ Chemiluminescent HRP Detection Reagent (E2500, Denville Scientific) or Immobilon™ Western Chemiluminescent HRP Substrate (WBKLS0500, Millipore). […]
the indicated times. Lysates were analyzed via immunoblots. b. […]
were analyzed by immunoblots. c. […]
Lysates were analyzed via immunoblots. e. […]
Lysates were analyzed via immunoblots. f, g, h. […]

[4] = tested on: Ren-01 PBRM1 KO cells; experiment: Immunoblot of p53 targets, Ren-01 PBRM1 KO cells; type: cell-based; conditions: 50 μM etoposide
Method: The band intensity of indicated protein was measured with Bio-rad Image Lab 4.1, and the relative ratios were calculated over the signal intensity of Vinculin in the corresponding lanes. c–e. Nude mice xenograft analyses were performed with Ren-01 PBRM1 KO cells expressing GFP (left flank) or PBRM1 (right flank). Representative photographs of a mouse (c, top) and tumors (c, bottom). Tumors were excised and weighed, and data are presented as mean ± SEM (d). p-values were calculated using the paired two-tailed Student’s t-test. Tumors were stained for PBRM1 and p21 expression via IHC (e). Scale bar: 200 μm. f–h Nude mice xenograft analyses were performed with Ren-01 PBRM1 KO cells expressing wild-type PBRM1 (left flank) or the BD4* mutant PBRM1 (right flank). Tumors were excised and weighed, and data are presented as mean ± SEM (g). p-values were calculated using the paired two-tailed Student’s t-test. Representative photographs of a mouse (f, top) and tumors (f, bottom). Tumors were stained for PBRM1 and p21 expression via IHC analysis (h). Scale bar: 200 μm. Source data are provided as a Source Data file.
After washing with ice-cold PBS, cells were scraped on ice and centrifuged at 10,000 × g for 1 min at 4 °C. […]

## COc1cc([C@@H]2c3cc4c(cc3[C@@H](O[C@@H]3O[C@@H]5CO[C@@H](C)O[C@H]5[C@H](O)[C@H]3O)[C@H]3COC(=O)[C@H]23)OCO4)cc(OC)c1O [Etoposide]
[1]; RCC4-GFP, assay 1
  Flag ChIP at CDKN1A-RE1: 0.0131
  Flag ChIP at CDKN1A-TSS: 0.013
  Flag ChIP at CDKN1A-intron: 0.0279
[1]; RCC4-GFP, assay 2
  Flag ChIP at CDKN1A-RE1: 0.0381
  Flag ChIP at CDKN1A-TSS: 0.0086
  Flag ChIP at CDKN1A-intron: 0.0296
[1]; RCC4-GFP, assay 3
  Flag ChIP at CDKN1A-RE1: 0.0109
  Flag ChIP at CDKN1A-TSS: 0.0269
  Flag ChIP at CDKN1A-intron: 0.0971
[1]; RCC4-PBRM1-BD4*, assay 1
  Flag ChIP at CDKN1A-RE1: 0.1332
  Flag ChIP at CDKN1A-TSS: 0.204
  Flag ChIP at CDKN1A-intron: 0.0594
[1]; RCC4-PBRM1-BD4*, assay 2
  Flag ChIP at CDKN1A-RE1: 0.168
  Flag ChIP at CDKN1A-TSS: 0.1814
  Flag ChIP at CDKN1A-intron: 0.0845
[1]; RCC4-PBRM1-BD4*, assay 3
  Flag ChIP at CDKN1A-RE1: 0.1906
  Flag ChIP at CDKN1A-TSS: 0.171
  Flag ChIP at CDKN1A-intron: 0.0675
[1]; RCC4-PBRM1, assay 1
  Flag ChIP at CDKN1A-RE1: 0.118
  Flag ChIP at CDKN1A-TSS: 0.1053
  Flag ChIP at CDKN1A-intron: 0.1192
[1]; RCC4-PBRM1, assay 2
  Flag ChIP at CDKN1A-RE1: 0.114
  Flag ChIP at CDKN1A-TSS: 0.1575
  Flag ChIP at CDKN1A-intron: 0.074
[1]; RCC4-PBRM1, assay 3
  Flag ChIP at CDKN1A-RE1: 0.1263
  Flag ChIP at CDKN1A-TSS: 0.1136
  Flag ChIP at CDKN1A-intron: 0.066
[2]
  endogenous PBRM1 precipitated by p53: increased the amount of endogenous PBRM1 precipitated
[3]
  p21 enhancement by PBRM1 BD4* mutant after p53 activation: failed to enhance p21 expression
[4]
  expression of p53 downstream targets after DNA damage, wild-type vs BD4* PBRM1: rescued by wild-type but not BD4* mutant PBRM1
